The record followed here is the kinase profiling compilation of Christmann-Franck et al. (2016).

For test [1], the system named is PHKG1 or PHKG2 (rabbit). In words: radiometric filter-binding kinase assay. As to conditions: compound 1.0 µM; ATP 100 µM; accession and sequence are those of the human protein.
The subject of test [2] is PHKG1 or PHKG2 (rabbit). As to conditions: compound 10.0 µM; accession and sequence are those of the human protein.
A further test concerns the target RPS6KA5 KD1 KD2 (human) (UniProt O75582). As to conditions: ATP 100 µM.
The test system of a further test is ROCK2 (rat). As to conditions: accession and sequence are those of the human protein.
Test [3] has as its system SGK1 (human), O00141 [S422D]. The settings on record: ATP 100 µM.
For test [4], the target named is CSNK2A1 or CSNK2A2 (human) (UniProt P19784+P68400). The settings on record: ATP 100 µM.
Another test concerns the target MAPK14 (human) (UniProt Q16539). As to conditions: compound 1.0 µM; ATP 100 µM.
The target of a further test is MAPKAPK5 (human) (UniProt Q8IW41). The settings on record: compound 1.0 µM; ATP 100 µM.
The target in the next test is LCK (human) (UniProt P06239). The settings on record: ATP 100 µM.
The target of another test is PDPK1 (human) (UniProt O15530). As to conditions: ATP 100 µM.
In the next test the target is MAPK11 (human) (UniProt Q15759). The settings on record: ATP 100 µM.
The target in test [5] is MYLK (chicken). The settings on record: accession and sequence are those of the human protein.
A further test addresses PRKCA (human) (UniProt P17252). The settings on record: ATP 100 µM.
The test system of another test is PIK3CG (cow). As to conditions: compound 1.0 µM; accession and sequence are those of the human protein.
The target in the next test is CHEK1 (human) (UniProt O14757). As to conditions: ATP 100 µM.
The target in another test is MAPKAPK2 (human) (UniProt P49137). The settings on record: ATP 100 µM.
For another test, the target named is MAPK8 (human) (UniProt P45983). As to conditions: ATP 100 µM.
A further test deals with MAPK12 (human) (UniProt P53778). The settings on record: ATP 100 µM.
The target of another test is AKT1 (human) (UniProt P31749). As to conditions: compound 1.0 µM; ATP 100 µM.
The test system of the next test is MAP2K1 (rabbit). As to conditions: compound 1.0 µM; accession and sequence are those of the human protein.
The test system of test [6] is RPS6KB1 (human), P23443 [T412E]. The settings on record: ATP 100 µM.
Test [7] has as its system PRKACA or PRKACB (cow). In words: radiometric filter-binding kinase assay. As to conditions: compound 1.0 µM; accession and sequence are those of the human protein.
Another test concerns MYLK2 (rabbit). In words: radiometric filter-binding kinase assay. The settings on record: compound 1.0 µM; ATP 100 µM; accession and sequence are those of the human protein.
Test [8] concerns PRKAA1 or PRKAA2 (rat). In words: radiometric filter-binding kinase assay. The settings on record: compound 1.0 µM; ATP 100 µM; accession and sequence are those of the human protein.
Test [9] deals with MYLK (chicken). In words: radiometric filter-binding kinase assay. The settings on record: compound 1.0 µM; accession and sequence are those of the human protein.
The test system of test [10] is RPS6KA3 KD1 KD2 (rabbit). In words: radiometric filter-binding kinase assay. The settings on record: compound 1.0 µM; ATP 100 µM; accession and sequence are those of the human protein.
A further test concerns the target GSK3B (human) (UniProt P49841). As to conditions: ATP 100 µM.
The target of test [11] is CAMK2A or CAMK2B or CAMK2D or CAMK2G (human) (UniProt Q13555+Q13557+Q9UQM7+Q13554). The settings on record: compound 1.0 µM; ATP 100 µM.
The target of a further test is MAPK13 (human) (UniProt O15264). The settings on record: ATP 100 µM.
The test system of test [12] is PRKACA or PRKACB (cow). As to conditions: compound 10.0 µM; accession and sequence are those of the human protein.
The target in the next test is MAP2K7 (human) (UniProt O14733). The settings on record: compound 10.0 µM; ATP 100 µM.
In a further test the target is MAP2K3 (human) (UniProt P46734). As to conditions: compound 10.0 µM; ATP 100 µM.
Another test has as its system MAPK1 (mouse). As to conditions: compound 10.0 µM; accession and sequence are those of the human protein.
The next test has as its target MAP2K4 (human) (UniProt P45985). The settings on record: compound 10.0 µM; ATP 100 µM.
The subject of test [13] is PRKAA1 or PRKAA2 (rat). The settings on record: compound 10.0 µM; accession and sequence are those of the human protein.
For another test, the target named is MAP2K6 (human) (UniProt P52564). The settings on record: compound 10.0 µM; ATP 100 µM.
The test system of test [14] is RPS6KA3 KD1 KD2 (rabbit). The settings on record: compound 10.0 µM; accession and sequence are those of the human protein.

Chain of MAPK12 (human) (P53778 whole entry, looked up): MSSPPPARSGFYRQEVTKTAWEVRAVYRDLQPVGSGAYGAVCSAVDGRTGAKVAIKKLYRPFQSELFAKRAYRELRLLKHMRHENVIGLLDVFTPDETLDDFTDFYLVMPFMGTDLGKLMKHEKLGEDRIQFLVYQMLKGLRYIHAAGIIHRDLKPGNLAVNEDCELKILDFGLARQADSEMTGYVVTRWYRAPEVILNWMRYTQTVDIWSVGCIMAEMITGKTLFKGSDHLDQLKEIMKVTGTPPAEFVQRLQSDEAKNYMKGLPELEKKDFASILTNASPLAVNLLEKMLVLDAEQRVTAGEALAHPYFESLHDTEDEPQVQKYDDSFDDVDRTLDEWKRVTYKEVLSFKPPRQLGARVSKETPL
Chain of SGK1 (human), O00141 [S422D] (O00141 whole entry S422D, looked up): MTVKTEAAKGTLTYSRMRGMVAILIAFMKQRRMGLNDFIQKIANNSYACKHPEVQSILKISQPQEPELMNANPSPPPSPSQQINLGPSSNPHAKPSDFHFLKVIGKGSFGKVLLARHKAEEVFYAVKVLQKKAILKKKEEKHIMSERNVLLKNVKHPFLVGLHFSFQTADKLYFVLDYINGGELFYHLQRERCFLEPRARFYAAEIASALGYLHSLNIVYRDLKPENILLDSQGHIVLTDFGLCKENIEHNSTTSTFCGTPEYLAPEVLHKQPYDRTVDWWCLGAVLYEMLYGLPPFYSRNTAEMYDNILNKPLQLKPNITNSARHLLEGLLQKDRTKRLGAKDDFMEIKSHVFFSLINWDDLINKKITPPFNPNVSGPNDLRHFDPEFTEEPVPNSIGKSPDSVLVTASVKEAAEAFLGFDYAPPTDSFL
Chain of AKT1 (human) (P31749 whole entry, looked up): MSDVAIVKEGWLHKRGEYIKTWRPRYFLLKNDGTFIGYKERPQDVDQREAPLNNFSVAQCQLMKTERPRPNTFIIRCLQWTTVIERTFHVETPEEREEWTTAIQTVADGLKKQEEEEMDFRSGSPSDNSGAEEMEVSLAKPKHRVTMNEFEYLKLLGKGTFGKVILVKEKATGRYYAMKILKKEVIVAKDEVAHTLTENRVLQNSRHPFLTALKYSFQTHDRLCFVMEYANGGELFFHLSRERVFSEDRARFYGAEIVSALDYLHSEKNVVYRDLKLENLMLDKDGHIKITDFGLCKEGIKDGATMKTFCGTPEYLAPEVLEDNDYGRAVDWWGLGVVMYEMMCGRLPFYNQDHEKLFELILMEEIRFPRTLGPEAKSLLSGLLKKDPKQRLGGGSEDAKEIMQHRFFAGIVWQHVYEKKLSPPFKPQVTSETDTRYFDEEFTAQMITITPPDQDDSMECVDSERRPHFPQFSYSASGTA
Chain of CHEK1 (human) (O14757 whole entry, looked up): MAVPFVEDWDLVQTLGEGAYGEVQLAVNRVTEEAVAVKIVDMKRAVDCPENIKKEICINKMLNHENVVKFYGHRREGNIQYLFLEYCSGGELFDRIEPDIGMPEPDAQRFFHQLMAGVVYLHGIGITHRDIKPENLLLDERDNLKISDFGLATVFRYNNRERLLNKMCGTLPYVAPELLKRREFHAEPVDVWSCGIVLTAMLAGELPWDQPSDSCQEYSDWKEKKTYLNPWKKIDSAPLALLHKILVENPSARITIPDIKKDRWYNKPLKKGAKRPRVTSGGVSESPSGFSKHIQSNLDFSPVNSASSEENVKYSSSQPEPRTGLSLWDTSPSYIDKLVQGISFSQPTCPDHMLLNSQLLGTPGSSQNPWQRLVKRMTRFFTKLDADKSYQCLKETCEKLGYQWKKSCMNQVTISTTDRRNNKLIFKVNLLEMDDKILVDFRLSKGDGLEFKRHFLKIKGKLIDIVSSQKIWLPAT
Chain of MAPK8 (human) (P45983 whole entry, looked up): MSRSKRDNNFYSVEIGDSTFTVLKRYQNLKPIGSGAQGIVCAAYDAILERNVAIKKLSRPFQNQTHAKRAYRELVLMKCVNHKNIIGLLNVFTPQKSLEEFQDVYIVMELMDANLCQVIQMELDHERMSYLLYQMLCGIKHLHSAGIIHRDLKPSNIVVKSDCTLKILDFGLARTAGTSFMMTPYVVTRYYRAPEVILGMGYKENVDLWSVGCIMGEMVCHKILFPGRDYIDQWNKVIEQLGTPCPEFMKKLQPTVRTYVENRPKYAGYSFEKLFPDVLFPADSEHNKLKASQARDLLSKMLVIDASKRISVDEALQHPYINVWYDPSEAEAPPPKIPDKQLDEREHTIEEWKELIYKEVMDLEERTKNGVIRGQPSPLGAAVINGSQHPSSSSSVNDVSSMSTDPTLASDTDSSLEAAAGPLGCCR
Chain of RPS6KA5 KD1 KD2 (human) (O75582 whole entry, looked up): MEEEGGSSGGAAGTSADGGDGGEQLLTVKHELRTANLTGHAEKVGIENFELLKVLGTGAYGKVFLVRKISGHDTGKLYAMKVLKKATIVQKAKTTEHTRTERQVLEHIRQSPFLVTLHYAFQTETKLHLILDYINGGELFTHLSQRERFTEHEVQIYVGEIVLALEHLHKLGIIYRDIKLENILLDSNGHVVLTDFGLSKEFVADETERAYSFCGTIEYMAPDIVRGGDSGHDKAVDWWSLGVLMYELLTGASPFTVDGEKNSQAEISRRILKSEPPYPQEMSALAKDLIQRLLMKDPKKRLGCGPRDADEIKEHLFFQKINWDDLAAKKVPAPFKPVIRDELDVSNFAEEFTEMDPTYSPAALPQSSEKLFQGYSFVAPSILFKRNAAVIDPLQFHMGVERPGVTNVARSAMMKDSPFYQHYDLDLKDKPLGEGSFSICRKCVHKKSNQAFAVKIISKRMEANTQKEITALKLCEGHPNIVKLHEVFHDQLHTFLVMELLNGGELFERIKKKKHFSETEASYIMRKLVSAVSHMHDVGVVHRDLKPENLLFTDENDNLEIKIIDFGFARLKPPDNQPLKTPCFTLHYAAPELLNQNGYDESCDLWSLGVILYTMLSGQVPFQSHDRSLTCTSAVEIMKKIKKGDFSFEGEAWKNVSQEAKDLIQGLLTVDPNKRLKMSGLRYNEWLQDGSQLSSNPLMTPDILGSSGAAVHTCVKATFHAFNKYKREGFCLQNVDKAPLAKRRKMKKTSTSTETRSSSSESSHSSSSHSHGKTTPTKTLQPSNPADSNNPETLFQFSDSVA
Chain of RPS6KB1 (human), P23443 [T412E] (P23443 whole entry T412E, looked up): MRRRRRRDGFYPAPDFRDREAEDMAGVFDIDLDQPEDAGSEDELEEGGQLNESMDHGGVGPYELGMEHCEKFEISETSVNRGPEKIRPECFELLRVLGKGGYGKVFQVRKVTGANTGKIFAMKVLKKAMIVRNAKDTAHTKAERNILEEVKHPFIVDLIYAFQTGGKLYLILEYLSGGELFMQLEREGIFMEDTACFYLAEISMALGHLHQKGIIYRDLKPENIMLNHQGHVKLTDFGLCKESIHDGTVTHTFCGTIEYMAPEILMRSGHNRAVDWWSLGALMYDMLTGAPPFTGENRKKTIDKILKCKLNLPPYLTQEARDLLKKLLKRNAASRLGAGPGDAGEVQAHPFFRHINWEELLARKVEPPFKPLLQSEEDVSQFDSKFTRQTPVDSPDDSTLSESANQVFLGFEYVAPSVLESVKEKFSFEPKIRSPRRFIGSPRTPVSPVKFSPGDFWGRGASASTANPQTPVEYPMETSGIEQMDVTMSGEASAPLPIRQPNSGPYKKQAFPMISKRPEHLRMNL
Chain of PDPK1 (human) (O15530 whole entry, looked up): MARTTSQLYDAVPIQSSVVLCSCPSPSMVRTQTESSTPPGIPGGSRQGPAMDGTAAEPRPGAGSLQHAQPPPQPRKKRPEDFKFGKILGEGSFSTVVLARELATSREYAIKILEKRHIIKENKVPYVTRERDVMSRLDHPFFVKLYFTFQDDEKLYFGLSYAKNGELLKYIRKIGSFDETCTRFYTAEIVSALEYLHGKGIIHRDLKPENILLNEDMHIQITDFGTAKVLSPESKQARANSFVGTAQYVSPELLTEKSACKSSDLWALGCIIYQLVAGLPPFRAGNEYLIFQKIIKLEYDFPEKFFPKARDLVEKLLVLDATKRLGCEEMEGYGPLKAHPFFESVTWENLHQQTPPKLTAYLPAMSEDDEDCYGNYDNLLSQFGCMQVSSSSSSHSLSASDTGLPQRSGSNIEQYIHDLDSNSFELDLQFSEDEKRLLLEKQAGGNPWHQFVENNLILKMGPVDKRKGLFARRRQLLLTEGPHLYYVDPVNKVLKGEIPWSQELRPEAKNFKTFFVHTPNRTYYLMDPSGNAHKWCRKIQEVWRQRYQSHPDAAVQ

As to `CN1C(=O)C(c2c[nH]c3ccccc23)=C(c2c[nH]c3ccccc23)C1=O`, the residual activity (usually the signal under treatment as a percentage of the control signal) in the test with PHKG1 or PHKG2 (rabbit) [1] turned out to be 100%.

Consider `O=C1NCc2c1c1c3ccccc3[nH]c1c1[nH]c3ccccc3c21`, for which the residual activity in the test on PHKG1 or PHKG2 (rabbit) [2] came to 0%.

On to `COC[C@H]1OC(=O)c2coc3c2[C@@]1(C)C1=C(C3=O)[C@@H]2CCC(=O)[C@@]2(C)C[C@H]1OC(C)=O`, for which the residual activity at RPS6KA5 KD1 KD2 (human) (compound 1.0 µM) stood at 99%; with ROCK2 (rat) (compound 1.0 µM), 91%; in test [3] (compound 1.0 µM) it was 101%; in [4] (compound 1.0 µM), 98%; at MAPK14 (human), 86%; on MAPKAPK5 (human), 85%. Further, the residual activity on LCK (human) (compound 1.0 µM) turned out to be 95%; on PDPK1 (human) (compound 1.0 µM), 88%; on MAPK11 (human) (compound 1.0 µM), 74%; on PRKCA (human) (compound 1.0 µM), 100%; in the test on PIK3CG (cow), 0%; at CHEK1 (human) (compound 1.0 µM), 99%. In addition, the residual activity on MAPKAPK2 (human) (compound 1.0 µM) was determined as 102%; at MAPK8 (human) (compound 1.0 µM) it was 97%; on MAPK12 (human) (compound 1.0 µM), 75%; on AKT1 (human), 96%; in the test on MAP2K1 (rabbit), 96%; in test [6] (compound 1.0 µM), 106%. In addition, the residual activity in the test on PRKACA or PRKACB (cow) [7] was 97%; with PHKG1 or PHKG2 (rabbit) [1], 100%; with MYLK2 (rabbit), 104%; with PRKAA1 or PRKAA2 (rat) [8], 106%; in the test with MYLK (chicken) [9] it was 4%; with RPS6KA3 KD1 KD2 (rabbit) [10] it was 92%. The half-inhibitory concentration (IC50) – broadly, the concentration that inhibits the measured activity by half – on MYLK (chicken) [5] worked out at 260 nM.

Regarding `CN[C@@H]1C[C@@H]2O[C@@](C)([C@@H]1OC)n1c3ccccc3c3c4c(c5c6ccccc6n2c5c31)C(=O)N[C@@H]4O`, the residual activity was 19% on RPS6KA5 KD1 KD2 (human) (compound 1.0 µM); 22% in the test on ROCK2 (rat) (compound 1.0 µM); 77% in [4] (compound 1.0 µM); 92% at MAPK14 (human); 77% at MAPKAPK5 (human); 83% at GSK3B (human) (compound 1.0 µM). In addition, the residual activity in [11] is 69%; at LCK (human) (compound 1.0 µM) it was 7%; at PDPK1 (human) (compound 1.0 µM) it was 0%; at PRKCA (human) (compound 1.0 µM) it was 1%; at CHEK1 (human) (compound 1.0 µM), 3%; on MAPKAPK2 (human) (compound 1.0 µM), 90%. The residual activity on MAPK8 (human) (compound 1.0 µM) is 98%; on MAPK12 (human) (compound 1.0 µM), 76%; at MAPK13 (human) (compound 1.0 µM), 91%; at AKT1 (human), 31%; in the test on MAP2K1 (rabbit), 90%; in [6] (compound 1.0 µM), 28%. The residual activity in the test with PRKACA or PRKACB (cow) [7] was found to be 39%; in the test with PHKG1 or PHKG2 (rabbit) [1] it was 0%; in the test with PRKAA1 or PRKAA2 (rat) [8], 1%; in the test with RPS6KA3 KD1 KD2 (rabbit) [10], 5%.

In the case of `CCCCCCOC(=O)[C@@]1(O)C[C@H]2O[C@]1(C)n1c3ccccc3c3c4c(c5c6ccccc6n2c5c31)C(=O)NC4`, the residual activity in the test on PHKG1 or PHKG2 (rabbit) [2] is 0%.

On to `CO[C@H]1CC2CC[C@@H](C)[C@@](O)(O2)C(=O)C(=O)N2CCCC[C@H]2C(=O)OC([C@H](C)C[C@@H]2CC[C@@H](O)[C@H](OC)C2)CC(=O)[C@H](C)/C=C(\C)[C@@H](O)[C@@H](OC)C(=O)[C@H](C)C[C@H](C)/C=C/C=C/C=C/1C` (some centres not stated), for which the residual activity at RPS6KA5 KD1 KD2 (human) (compound 1.0 µM) amounted to 104%; in the test on ROCK2 (rat) (compound 1.0 µM), 92%; in [3] (compound 1.0 µM), 108%; in test [4] (compound 1.0 µM), 104%; on GSK3B (human) (compound 1.0 µM) it was 89%; on LCK (human) (compound 1.0 µM) it was 102%. Also, the residual activity at PDPK1 (human) (compound 1.0 µM) is 110%; at PRKCA (human) (compound 1.0 µM), 99%; at CHEK1 (human) (compound 1.0 µM), 102%; on MAPKAPK2 (human) (compound 1.0 µM) it was 125%; on MAPK8 (human) (compound 1.0 µM) it was 98%; on MAPK12 (human) (compound 1.0 µM), 100%. Also, the residual activity at AKT1 (human) was found to be 91%; in the test on MAP2K1 (rabbit), 99%; in [6] (compound 1.0 µM) it was 109%; with PRKACA or PRKACB (cow) [7], 104%; in the test with PHKG1 or PHKG2 (rabbit) [1], 103%; with PRKAA1 or PRKAA2 (rat) [8], 106%.

Regarding `N#CC(=C(\N)Sc1ccccc1N)/C(C#N)=C(/N)Sc1ccccc1N`, the residual activity in the test with PRKACA or PRKACB (cow) [12] is 95%; with PHKG1 or PHKG2 (rabbit) [2], 101%; on MAP2K7 (human) it was 89%; on RPS6KA5 KD1 KD2 (human) (compound 10.0 µM), 104%; with ROCK2 (rat) (compound 10.0 µM) it was 94%; in test [3] (compound 10.0 µM), 91%. The residual activity in test [4] (compound 10.0 µM) was found to be 107%; on MAP2K3 (human) it was 114%; on GSK3B (human) (compound 10.0 µM), 105%; with MAPK1 (mouse), 92%; at LCK (human) (compound 10.0 µM) it was 87%; at PDPK1 (human) (compound 10.0 µM), 99%. Besides, the residual activity stood at 81% at MAP2K4 (human); 85% in the test with PRKAA1 or PRKAA2 (rat) [13]; 90% on MAPK11 (human) (compound 10.0 µM); 92% at PRKCA (human) (compound 10.0 µM); 95% on CHEK1 (human) (compound 10.0 µM); 102% at MAPKAPK2 (human) (compound 10.0 µM). For the same compound, the residual activity at MAPK8 (human) (compound 10.0 µM) was 96%; on MAPK12 (human) (compound 10.0 µM) it was 100%; on MAPK13 (human) (compound 10.0 µM), 111%; at MAP2K6 (human), 79%; in the test on RPS6KA3 KD1 KD2 (rabbit) [14], 88%; in test [6] (compound 10.0 µM), 92%.
